Read-outs that look alike come from different tables or passages of the source. Where only a bound is given, the exact number is not on record here.

Experiment [1] deals with phosphorylated 4E-BP1 Thr37/46 (p4E-BP1 Thr37/46), mTORC1 activity, PC3 cells. The experiment can be described thus: mTOR target engagement assay, immunofluorescent cell-based, p4E-BP1 Thr37/46 readout (mTORC1 activity). As to conditions: Homo sapiens, read-out: p4E-BP1 Thr37/46 IC50. The procedure, abridged: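 Read-out is fluorescence intensity of immunostained p4E-BP1 Thr37/46 in fixed PC3 cells, fitted to a logistic curve for IC50 with DMSO-only wells as top. Cells had been exposed to serial compound dilutions for ninety minutes at 37° C in 5% FBS medium with 0.25% DMSO.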

The subject of experiment [2] is phosphorylated AKT Ser473 (pAKT S473), mTORC2 activity, PC3 cells. The experiment can be described thus: mTOR target engagement assay, immunofluorescent cell-based, pAKT S473 readout (mTORC2 activity). As to conditions: Homo sapiens. An outline of the steps:
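After blocking, cells were stained overnight at 4 °C with anti-pAKT S473 antibody, then a fluorescent secondary; inhibition was read as reduced fluorescence intensity.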

Where [3] appears, read: PC-3, PC3 cells, compound treatment ninety minutes at 37° C.

As to `CCNC(=O)N1[C@@H]2CC[C@H]1C[C@H](c1nc3c(-c4ccc(-c5ccccc5)nc4)cnn3c(N)c1C1CC1)C2` [Compound 4.5, (1R,3s,5S)-3-(7-amino-6-cyclopropyl-3-(6-phenylpyridin-3-yl)pyrazolo[1,5-a]pyrimidin-5-yl)-N-ethyl-8-azabicyclo[3.2.1]octane-8-carboxamide], the IC50 in experiment [1] (setting [3]) and in experiment [2] (setting [3]) was 100 to 1000 nM in each case.

For the compound `CC(=O)c1c([C@@H]2C[C@H]3CC[C@@H](C2)N3C(=O)c2nnc[nH]2)nc2c(-c3ccc(C#CCO)nc3)cnn2c1N` [Compound 8.56, 1-(5-((1R,3s,5S)-8-(4H-1,2,4-triazole-3-carbonyl)-8-azabicyclo[3.2.1]octan-3-yl)-7-amino-3-(6-(3-hydroxyprop-1-ynyl)pyridin-3-yl)pyrazolo[1,5-a]pyrimidin-6-yl)ethanone], the IC50 in experiment [1] (PC-3, PC3 cells) was in the range of 100 to 1000 nM; in experiment [2] (PC-3, PC3 cells), 100 to 1000 nM.

`Nc1c(S(=O)(=O)C2CC2)c([C@@H]2C[C@H]3CC[C@@H](C2)N3C(=O)c2nnc[nH]2)nc2c(-c3ccc(-c4ccccc4)nc3)cnn12` [Compound 3.160, ((1R,3s,5S)-3-(7-amino-6-(cyclopropylsulfonyl)-3-(6-phenylpyridin-3-yl)pyrazolo[1,5-a]pyrimidin-5-yl)-8-azabicyclo[3.2.1]octan-8-yl)(4H-1,2,4-triazol-3-yl)methanone]: the IC50 was in the range of 100 to 1000 nM in experiment [1] (PC-3, Table 3-1, PC3 cells) and 1 to 100 nM in experiment [2] (PC-3, Table 3-1, PC3 cells).

For the compound `COCCOc1ccc(-c2ccc(-c3cnn4c(N)c(S(C)(=O)=O)c([C@@H]5C[C@H]6CC[C@@H](C5)N6C(=O)c5nnc[nH]5)nc34)cn2)cc1` [Compound 3.56, ((1R,3s,5S)-3-(7-amino-3-(6-(4-(2-methoxyethoxy)phenyl)pyridin-3-yl)-6-(methylsulfonyl)pyrazolo[1,5-a]pyrimidin-5-yl)-8-azabicyclo[3.2.1]octan-8-yl)(4H-1,2,4-triazol-3-yl)methanone], the IC50 in experiment [1] (PC-3, Table 3-1, PC3 cells) fell in the range of 100 to 1000 nM; in experiment [2] (PC-3, Table 3-1, PC3 cells), 100 to 1000 nM.

Take `CC(=O)c1c([C@@H]2C[C@H]3CC[C@@H](C2)N3C(=O)c2cc[nH]c2)nc2c(-c3ccc(-c4ncc[nH]4)nc3)cnn2c1N` [Compound 6.11, 1-(3-(6-(1H-imidazol-2-yl)pyridin-3-yl)-5-((1R,3s,5S)-8-(1H-pyrrole-3-carbonyl)-8-azabicyclo[3.2.1]octan-3-yl)-7-aminopyrazolo[1,5-a]pyrimidin-6-yl)ethanone]: the IC50 in experiment [1] (PC-3, Table 6-1, PC3 cells) lay in the range of 1 to 100 nM; in experiment [2] (PC-3, Table 6-1, PC3 cells), 1 to 100 nM.

Turning to `Nc1c(C2CC2)c([C@@H]2C[C@H]3CC[C@@H](C2)N3C(=O)c2nnc[nH]2)nc2c(-c3ccc(C(N)(C(F)(F)F)C(F)(F)F)nc3)cnn12` [Compound 7.85, ((1R,3s,5S)-3-(7-amino-3-(6-(2-amino-1,1,1,3,3,3-hexafluoropropan-2-yl)pyridin-3-yl)-6-cyclopropylpyrazolo [1,5-a]pyrimidin-5-yl)-8-azabicyclo[3.2.1]octan-8-yl)(4H-1,2,4-triazol-3-yl)methanone], the IC50 in experiment [1] (PC-3, PC3 cells) fell in the range of 1000 to 10000 nM; in experiment [2] (PC-3, PC3 cells), 1000 to 10000 nM.

With `CC(=O)c1c([C@@H]2C[C@H]3CC[C@@H](C2)N3C(=O)C2(O)CC2)nc2c(-c3ccc(-c4ccccc4)nc3)cnn2c1N` [Compound 1.1.48, 1-(7-amino-5-((1R,3s,5S)-8-(1-hydroxycyclopropanecarbonyl)-8-azabicyclo[3.2.1]octan-3-yl)-3-(6-phenylpyridin-3-yl)pyrazolo[1,5-a]pyrimidin-6-yl)ethanone], the IC50 in experiment [1] (setting [3]) and in experiment [2] (setting [3]) was 100 to 1000 nM throughout.

`CN(C)c1nnc(C(=O)N2[C@@H]3CC[C@H]2C[C@H](c2nc4c(-c5ccc(-c6ccccc6)nc5)cnn4c(N)c2S(C)(=O)=O)C3)[nH]1` [Compound 3.93, ((1R,3s,5S)-3-(7-amino-6-(methylsulfonyl)-3-(6-phenylpyridin-3-yl)pyrazolo[1,5-a]pyrimidin-5-yl)-8-azabicyclo[3.2.1]octan-8-yl)(5-(dimethylamino)-4H-1,2,4-triazol-3-yl)methanone]: the IC50 in experiment [1] (PC-3, Table 3-1, PC3 cells) was in the range of 100 to 1000 nM; in experiment [2] (PC-3, Table 3-1, PC3 cells), 100 to 1000 nM.

`CS(=O)(=O)c1c([C@@H]2C[C@H]3CC[C@@H](C2)N3C(=O)c2cc(O)ccn2)nc2c(-c3ccc(-c4ccccc4)nc3)cnn2c1N` [Compound 3.14, ((1R,3s,5S)-3-(7-amino-6-(methylsulfonyl)-3-(6-phenylpyridin-3-yl)pyrazolo[1,5-a]pyrimidin-5-yl)-8-azabicyclo[3.2.1]octan-8-yl)(4-hydroxypyridin-2-yl)methanone]: the IC50 in experiment [1] (PC-3, Table 3-1, PC3 cells) lay within 1000 to 10000 nM; in experiment [2] (PC-3, Table 3-1, PC3 cells), 100 to 1000 nM.

`CS(=O)(=O)c1c([C@@H]2C[C@H]3CC[C@@H](C2)N3C(=O)c2cc3cccnc3[nH]2)nc2c(-c3ccc(-c4ccccc4)nc3)cnn2c1N` [Compound 3.77, ((1R,3s,5S)-3-(7-amino-6-(methylsulfonyl)-3-(6-phenylpyridin-3-yl)pyrazolo[1,5-a]pyrimidin-5-yl)-8-azabicyclo[3.2.1]octan-8-yl)(1H-pyrrolo[2,3-b]pyridin-2-yl)methanone]: the IC50 is above 10000 nM in experiment [1] (PC-3, Table 3-1, PC3 cells) and 1000 to 10000 nM in experiment [2] (PC-3, Table 3-1, PC3 cells).

On to `COCc1c([C@@H]2C[C@H]3CC[C@@H](C2)N3C(=O)c2cc(N)n[nH]2)nc2c(-c3ccc(-c4ccccc4)nc3)cnn2c1N` [Compound 5.5, (3-amino-1H-pyrazol-5-yl)((1R,3s,5S)-3-(7-amino-6-(methoxymethyl)-3-(6-phenylpyridin-3-yl)pyrazolo[1,5-a]pyrimidin-5-yl)-8-azabicyclo[3.2.1]octan-8-yl)methanone], for which the IC50 was 1000 to 10000 nM in experiment [1] (setting [3]) and 100 to 1000 nM in experiment [2] (setting [3]).

For `CS(=O)(=O)c1c([C@@H]2C[C@H]3CC[C@@H](C2)N3C(=O)[C@H]2COC(=O)N2)nc2c(-c3ccc(-c4ccccc4)nc3)cnn2c1N` [Compound 3.142, (R)-4-((1R,3S,5S)-3-(7-amino-6-(methylsulfonyl)-3-(6-phenylpyridin-3-yl)pyrazolo[1,5-a]pyrimidin-5-yl)-8-azabicyclo[3.2.1]octane-8-carbonyl)oxazolidin-2-one], the IC50 lay in the range of 100 to 1000 nM in experiment [1] (PC-3, Table 3-1, PC3 cells) and 100 to 1000 nM in experiment [2] (PC-3, Table 3-1, PC3 cells).

As to `CC(=O)c1c([C@@H]2C[C@H]3CC[C@@H](C2)N3C(=O)c2nnc[nH]2)nc2c(-c3ccc([C@@H](O)C(F)(F)F)nc3)cnn2c1N` [Compound 7.73, 1-(5-((1R,3s,5S)-8-(4H-1,2,4-triazole-3-carbonyl)-8-azabicyclo[3.2.1]octan-3-yl)-7-amino-3-(6-((R)-2,2,2-trifluoro-1-hydroxyethyl)pyridin-3-yl)pyrazolo[1,5-a]pyrimidin-6-yl)ethanone], the IC50 was in the range of 100 to 1000 nM in experiment [1] (PC-3, PC3 cells) and 100 to 1000 nM in experiment [2] (PC-3, PC3 cells).

As to `CC(=O)c1c([C@@H]2C[C@H]3CC[C@@H](C2)N3C(=O)CO)nc2c(-c3ccc(-n4cccn4)nc3)cnn2c1N` [Compound 1.1.178, 1-((1R,3s,5S)-3-(3-(6-(1H-pyrazol-1-yl)pyridin-3-yl)-6-acetyl-7-aminopyrazolo[1,5-a]pyrimidin-5-yl)-8-azabicyclo[3.2.1]octan-8-yl)-2-hydroxyethanone], the results for the IC50 in experiment [1] (setting [3]) and in experiment [2] (setting [3]) were 100 to 1000 nM and 1 to 100 nM, respectively.

Turning to `CC(=O)c1c([C@@H]2C[C@H]3CC[C@@H](C2)N3C(=O)C(C)(CO)CO)nc2c(-c3ccc(-c4ncc[nH]4)nc3)cnn2c1N` [Compound 6.46, 1-((1R,3s,5S)-3-(3-(6-(1H-imidazol-2-yl)pyridin-3-yl)-6-acetyl-7-aminopyrazolo[1,5-a]pyrimidin-5-yl)-8-azabicyclo[3.2.1]octan-8-yl)-3-hydroxy-2-(hydroxymethyl)-2-methylpropan-1-one], the IC50 lay within 100 to 1000 nM in experiment [1] (PC-3, Table 6-1, PC3 cells) and 100 to 1000 nM in experiment [2] (PC-3, Table 6-1, PC3 cells).

For the compound `COCc1cnc(-c2ccc(-c3cnn4c(N)c(C(C)=O)c([C@@H]5C[C@H]6CC[C@@H](C5)N6C(=O)c5nnc[nH]5)nc34)cn2)s1` [Compound 1.1.52, 1-(5-((1R,3s,5S)-8-(4H-1,2,4-triazole-3-carbonyl)-8-azabicyclo[3.2.1]octan-3-yl)-7-amino-3-(6-(5-(methoxymethyl)thiazol-2-yl)pyridin-3-yl)pyrazolo[1,5-a]pyrimidin-6-yl)ethanone], the IC50 in experiment [1] (setting [3]) and in experiment [2] (setting [3]) was 100 to 1000 nM each time.

For `COc1ccc(-c2ccc(-c3cnn4c(N)c(C(C)=O)c([C@@H]5C[C@H]6CC[C@@H](C5)N6C(=O)C(C)(CO)CO)nc34)cn2)cc1F` [Compound 1.1.59, 1-((1R,3s,5S)-3-(6-acetyl-7-amino-3-(6-(3-fluoro-4-methoxyphenyl)pyridin-3-yl)pyrazolo[1,5-a]pyrimidin-5-yl)-8-azabicyclo[3.2.1]octan-8-yl)-3-hydroxy-2-(hydroxymethyl)-2-methylpropan-1-one], the IC50 in experiment [1] (setting [3]) and in experiment [2] (setting [3]) was 1 to 100 nM in each case.

With `CC(=O)c1c([C@@H]2C[C@H]3CC[C@@H](C2)N3C(=O)C(N)=O)nc2c(-c3ccc(-c4ccccc4)nc3)cnn2c1N` [Compound 1.1.118, 2-((1R,3s,5S)-3-(6-acetyl-7-amino-3-(6-phenylpyridin-3-yl)pyrazolo[1,5-a]pyrimidin-5-yl)-8-azabicyclo[3.2.1]octan-8-yl)-2-oxoacetamide], the IC50 in experiment [1] (setting [3]) and in experiment [2] (setting [3]) was 100 to 1000 nM in each case.

`CC(=O)c1c([C@@H]2C[C@H]3CC[C@@H](C2)N3C(C)=O)nc2c(-c3ccc(-c4ncc[nH]4)nc3)cnn2c1N` [Compound 6.18, 1-(3-(6-(1H-imidazol-2-yl)pyridin-3-yl)-5-((1R,3s,5S)-8-acetyl-8-azabicyclo[3.2.1]octan-3-yl)-7-aminopyrazolo[1,5-a]pyrimidin-6-yl)ethanone]: the IC50 in experiment [1] (PC-3, Table 6-1, PC3 cells) is 1 to 100 nM; in experiment [2] (PC-3, Table 6-1, PC3 cells) it was 1 to 100 nM.

For the origin of these results see patent publication US9227971B2, “Pyrazolo[1,5-a]pyrimidine compounds as mTOR inhibitors” (Merck Sharp & Dohme Corp., priority 2010, dated 2016).
